Drawing on BindingDB's records for patent US20230365590 (Shenzhen Chipscreen Biosciences, 2023), this text covers IC50 for one molecule.

The structures appear in SMILES notation. pIC50: −log10 of the molar value.

In general, pIC50 refers to the negative decadic logarithm of the IC50, by convention in mol/L.

This experiment has as its target Programmed cell death 1 ligand/protein 1 (Homo sapiens, UniProt Q15116+Q9NZQ7). The experiment in a line: In Vitro Inhibitory Activity Against PD-1/PD-L1 Binding. The method, then: The experiment process was carried out according to the flow required in the operating manual of the test reagent.The process was as follows:(1) Experiment preparation: A test compound was diluted to different concentration gradients with the dilution buffer (the highest final concentration in a 20 μL final reaction system was 10 μM). The His-PD-1 protein was diluted to 800 nM (the final concentration in the 20 final reaction system was 100 nM). The PD-L1-Fc fusion protein was diluted to 16 nM (the final concentration was 2 nM). […] All tests were conducted by use of multiple holes.(4) The fluorescence detector Tecan (Spark 10M) was used to detect the fluorescence signal of each hole. The excitation wavelength was 320 nm, and the emission wavelengths for detection were 620 nm and 665 nm, respectively. The strength of PD-1/PD-L1 binding refers to a fluorescence signal ratio Em665/Em620.(5) Calculation formula of binding inhibition rate of test compound: Inhibition rate (%)=[1−(fluorescence signal ratio of detected hole−fluorescence signal ratio of 100% inhibition negative control)]/(fluorescence signal ratio of 0% inhibition positive control−fluorescence signal ratio of 100% inhibition negative control)×100%. […]

Chain of Programmed cell death 1 ligand/protein 1 (Q9NZQ7 whole entry, the tested form may be a part): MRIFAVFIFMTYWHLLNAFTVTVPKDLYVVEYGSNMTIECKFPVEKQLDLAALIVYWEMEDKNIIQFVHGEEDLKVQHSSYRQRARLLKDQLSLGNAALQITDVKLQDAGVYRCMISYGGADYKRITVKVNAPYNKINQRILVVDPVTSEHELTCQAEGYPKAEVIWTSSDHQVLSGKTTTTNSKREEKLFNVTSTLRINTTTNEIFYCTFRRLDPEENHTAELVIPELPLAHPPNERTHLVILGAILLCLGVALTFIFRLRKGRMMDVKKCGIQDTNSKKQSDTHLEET
Chain of Programmed cell death 1 ligand/protein 1 (Q15116 whole entry, the tested form may be a part): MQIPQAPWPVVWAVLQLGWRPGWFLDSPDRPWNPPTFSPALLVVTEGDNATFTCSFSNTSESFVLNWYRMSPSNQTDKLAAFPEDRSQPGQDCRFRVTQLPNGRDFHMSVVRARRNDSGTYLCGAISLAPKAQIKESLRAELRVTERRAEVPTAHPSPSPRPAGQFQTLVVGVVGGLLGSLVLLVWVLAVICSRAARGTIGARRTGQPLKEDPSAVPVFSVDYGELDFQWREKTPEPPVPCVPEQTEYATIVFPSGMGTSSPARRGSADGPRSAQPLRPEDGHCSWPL

In turn, `COCC12CCC(CCN3CCc4c(nc(C(=O)Nc5cccc(-c6cccc(NC(=O)c7nc8c(n7C)CCN(CCC79CCC(C(=O)O)(CC7)C9)C8)c6Cl)c5Cl)n4C)C3)(CC1)C2` [US20230365590, Compound I-6] gave a negative logarithm of the IC50 (pIC50) of 8.93.
